Assay results reported in patent publication US20240293164A1, “METHODS AND COMPOSITIONS OF CRYOABLATION WITH DRUG DELIVERY” (Theromics, Inc., priority 2023, published 2024).

Test: differential scanning calorimetry (DSC), heat flow as a function of temperature
Format: physicochemical
Description: This is also an exothermic event. Upon heating, the cryoablation gel melts at about −10° C.
An exothermic event begins as the sample is cooled to about −18° C.; and the phase changing event is more than 10° C. wide. This process is more than 4×more exothermic than the crystallization of cryoablation gel, showing that the water crystallization process is much more chaotic with high entropy and takes a while to reach an ordered state. On the contrary, the cryoablation gel is a more highly ordered substance and the crystallization event produces less energy due to the relatively lower entropy.

O [water]
temperature of phase change (exothermic event) on cooling (cooling): about −18 °C
width of phase changing event (cooling): more than 10 °C
exothermicity of crystallization relative to cryoablation gel (water versus cryoablation gel): more than 4 ×
